Measured values from the supplement of paper PMC10307832.

What was measured:
Experiment in all cases: relative viability (nuclei count vs DMSO), 5 days (fraction); higher = more cells survive
GSK-J4 + Alpelisib = compound: CCOC(=O)CCNc1cc(N2CCc3ccccc3CC2)nc(-c2ccccn2)n1 [GSK-J4] + Cc1nc(NC(=O)N2CCC[C@H]2C(N)=O)sc1-c1ccnc(C(C)(C)C(F)(F)F)c1 [Alpelisib] (partner 2 µM)
Procedure, shortened: (§1)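 The day after seeding in 1536-well plates, lung cancer cell lines were treated by pin tool with a single drug, or with a fixed anchor-drug dose together with five library-drug doses (not always all listed) in √10 steps. After 5 days, a combined fix-and-stain solution (final 0.05% Triton X-100, 1% formaldehyde, 1 ug/ml Hoechst) was added. Nuclei counted on 4× images gave relative viability as treated counts over vehicle counts, reported as the median of duplicate plates.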

AZ3146 + Palbociclib = compound: CN1CCC(CC1)OC2=CC(=C(C=C2)NC3=NC=C4C(=N3)N(C(=O)N4C)C5CCCC5)OC [AZ3146] + CC(=O)c1c(C)c2cnc(Nc3ccc(N4CCNCC4)cn3)nc2n(C2CCCC2)c1=O [Palbociclib] (partner 0.5 µM)
Procedure, shortened: as §1

AZ3146 + Bortezomib = compound: CN1CCC(CC1)OC2=CC(=C(C=C2)NC3=NC=C4C(=N3)N(C(=O)N4C)C5CCCC5)OC [AZ3146] + CC(C)C[C@H](NC(=O)[C@H](Cc1ccccc1)NC(=O)c1cnccn1)B(O)O [Bortezomib] (partner 0.002 µM)
Procedure, shortened: as §1

AZ3146 + AZD7762 = compound: CN1CCC(CC1)OC2=CC(=C(C=C2)NC3=NC=C4C(=N3)N(C(=O)N4C)C5CCCC5)OC [AZ3146] + NC(=O)Nc1cc(-c2cccc(F)c2)sc1C(=O)N[C@H]1CCCNC1 [AZD7762] (partner 0.2 µM)
Procedure, shortened: as §1

Row | Cell Line | relative viability (GSK-J4 + Alpelisib; first compound 0.5 µM) | relative viability (GSK-J4 + Alpelisib; first compound 1.581 µM) | relative viability (GSK-J4 + Alpelisib; first compound 5 µM) | relative viability (GSK-J4 + Alpelisib; first compound 15.81 µM) | relative viability (GSK-J4 + Alpelisib; first compound 50 µM) | relative viability (AZ3146 + Palbociclib; first compound 0.08 µM) | relative viability (AZ3146 + Palbociclib; first compound 0.253 µM) | relative viability (AZ3146 + Palbociclib; first compound 0.8 µM) | relative viability (AZ3146 + Palbociclib; first compound 2.53 µM) | relative viability (AZ3146 + Palbociclib; first compound 8 µM) | relative viability (AZ3146 + Bortezomib; first compound 0.08 µM) | relative viability (AZ3146 + Bortezomib; first compound 0.8 µM) | relative viability (AZ3146 + Bortezomib; first compound 2.53 µM) | relative viability (AZ3146 + Bortezomib; first compound 8 µM) | relative viability (AZ3146 + AZD7762; first compound 0.08 µM) | relative viability (AZ3146 + AZD7762; first compound 0.253 µM) | relative viability (AZ3146 + AZD7762; first compound 0.8 µM) | relative viability (AZ3146 + AZD7762; first compound 2.53 µM) | relative viability (AZ3146 + AZD7762; first compound 8 µM) | relative viability (AZ3146 + Bortezomib; first compound 0.253 µM)
1 | CAL-12T | 1.12 | 1.11 | 1.43 | 1.29 | 1.29 | 0.391 | 0.502 | 0.45 | 0.523 | 0.229 | 1.28 | 0.897 | 1.08 | 0.644 | 0.656 | 0.653 | 0.678 | 0.604 | 0.611 | –
2 | NCI-H1299 | 1.01 | 0.899 | 0.975 | 1.04 | 1.04 | – | – | – | – | – | 0.965 | 1.05 | 1.01 | 1.01 | – | – | – | – | – | 0.965
3 | NCI-H358 | 0.868 | 0.639 | 0.98 | 0.876 | 0.773 | 0.141 | 0.139 | 0.123 | 0.135 | 0.101 | – | – | – | – | 0.346 | 0.469 | 0.363 | 0.581 | 0.313 | –
4 | NCI-H2023 | 0.604 | 0.471 | 0.75 | 0.582 | 0.583 | 0.347 | 0.343 | 0.364 | 0.311 | 0.255 | 0.938 | 1.03 | 0.997 | 0.268 | – | – | – | – | – | 1.05
5 | NCI-H2228 | 0.702 | 0.653 | 0.933 | 0.566 | 0.575 | 0.671 | 0.878 | 0.728 | 0.622 | 0.59 | 0.904 | 1.04 | 1.18 | 0.953 | – | – | – | – | – | 1.03
6 | NCI-H1650 | – | – | – | – | – | 0.301 | 0.343 | 0.366 | 0.352 | 0.283 | 0.204 | 0.205 | 0.168 | 0.2 | – | – | – | – | – | 0.226
7 | NCI-H2342 | – | – | – | – | – | 0.527 | 0.502 | 0.582 | 0.565 | 0.501 | – | – | – | – | 0.472 | 0.481 | 0.489 | 0.521 | 0.529 | –
8 | EBC-1 | 0.742 | 0.72 | 0.9 | 0.824 | 0.423 | – | – | – | – | – | 0.549 | 0.541 | 0.521 | 0.279 | – | – | – | – | – | 0.578
9 | Calu-6 | 0.914 | 0.815 | 0.834 | 1.05 | 0.915 | – | – | – | – | – | 0.975 | 0.999 | 0.938 | 0.57 | – | – | – | – | – | 1.08
10 | COR-L23 | 0.677 | 0.709 | – | 0.68 | 0.781 | 0.244 | 0.351 | 0.328 | 0.321 | 0.278 | 0.912 | 0.991 | 0.984 | 0.886 | – | – | – | – | – | 1.17
11 | LK-2 | 1.04 | 1.08 | 1.41 | 1.3 | 1.23 | – | – | 0.633 | 0.591 | 0.71 | – | – | – | – | – | – | 0.372 | 0.347 | 0.286 | –
12 | NCI-H661 | 0.727 | 0.602 | 0.578 | 0.5 | 0.53 | 0.443 | 0.429 | 0.42 | 0.429 | 0.4 | 0.71 | 0.92 | 0.922 | 0.692 | – | – | – | – | – | 0.893
